Data on 14 compounds can be found in ChEMBL document CHEMBL2440026, “Hit-to-lead optimization of 2-(1H-pyrazol-1-yl)-thiazole derivatives as a novel class of EP1 receptor antagonists” (Bioorg Med Chem Lett, 2013).

The target in one data set is T1, Cytochrome P450 1A2 (Homo sapiens, UniProt P05177).
T1 sequence (P05177 whole entry): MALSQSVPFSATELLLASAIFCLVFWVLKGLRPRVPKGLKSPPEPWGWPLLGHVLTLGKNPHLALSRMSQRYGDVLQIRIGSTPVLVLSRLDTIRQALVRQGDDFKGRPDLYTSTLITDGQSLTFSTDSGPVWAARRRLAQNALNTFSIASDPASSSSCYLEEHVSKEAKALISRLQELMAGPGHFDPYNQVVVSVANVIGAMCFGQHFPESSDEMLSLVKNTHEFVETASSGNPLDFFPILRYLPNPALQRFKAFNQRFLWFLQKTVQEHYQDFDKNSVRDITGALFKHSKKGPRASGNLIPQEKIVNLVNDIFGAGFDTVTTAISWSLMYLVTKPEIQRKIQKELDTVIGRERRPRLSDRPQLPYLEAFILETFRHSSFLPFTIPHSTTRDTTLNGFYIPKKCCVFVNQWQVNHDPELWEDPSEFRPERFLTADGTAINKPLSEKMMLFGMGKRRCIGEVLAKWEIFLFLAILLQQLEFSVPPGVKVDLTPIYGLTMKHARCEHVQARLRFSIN
In words: Inhibition of CYP1A2 (unknown origin). The class given is ADME.

In data set [1] the target is T2, Prostaglandin E2 receptor EP1 subtype (Homo sapiens, UniProt P34995).
T2 sequence (P34995 whole entry): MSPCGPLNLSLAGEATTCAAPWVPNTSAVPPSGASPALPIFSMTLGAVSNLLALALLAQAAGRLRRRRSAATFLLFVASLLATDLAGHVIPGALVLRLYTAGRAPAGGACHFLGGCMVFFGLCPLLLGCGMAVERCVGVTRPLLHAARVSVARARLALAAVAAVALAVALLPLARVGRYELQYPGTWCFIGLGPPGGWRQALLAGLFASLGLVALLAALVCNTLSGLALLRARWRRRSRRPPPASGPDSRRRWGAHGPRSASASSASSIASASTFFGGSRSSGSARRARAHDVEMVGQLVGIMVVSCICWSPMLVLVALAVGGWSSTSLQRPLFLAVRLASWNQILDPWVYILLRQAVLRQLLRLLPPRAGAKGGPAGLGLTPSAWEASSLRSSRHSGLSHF
In words: Antagonist activity at human EP1 receptor by intracellular Ca2+ release assay. The class given is functional, cell-based.

Data set [2] has as its target T3, Prostaglandin E2 receptor EP2 subtype (Homo sapiens, UniProt P43116). In words: Binding affinity to human EP2 receptor.
In data set [3] the test system is Salmonella typhimurium. Description: Genotoxicity in Salmonella typhimurium TA100. The class given is toxicity, organism-based. The conditions noted are these: salmonella enterica subsp. enterica serovar typhimurium.
Data set [4] is described as follows: Apparent permeability from apical to basolateral side in MDCK cells. The class given is ADME, cell-based, Canis lupus familiaris. The conditions noted are these: dog.
A further data set deals with Cytochrome P450 3A4 (Homo sapiens, UniProt P08684). Description: Inhibition of CYP3A4 (unknown origin). The class given is ADME.
In data set [5] the target is T2, Prostaglandin E2 receptor EP1 subtype. Description: Binding affinity to human EP1 receptor.
Data set [6] addresses T4, Prostaglandin E2 receptor EP4 subtype (Homo sapiens, UniProt P35408). Description: Binding affinity to human EP4 receptor.
Data set [7] relates to Salmonella typhimurium. Description: Genotoxicity in Salmonella typhimurium TA98. The following applies: salmonella enterica subsp. enterica serovar typhimurium. The class given is toxicity, organism-based.
A further data set concerns the target Cytochrome P450 2D6 (Homo sapiens, UniProt P10635). Description: Inhibition of CYP2D6 (unknown origin). It counts as ADME.
The target in data set [8] is T2, Prostaglandin E2 receptor EP1 subtype. In words: Antagonist activity at human EP1 receptor by reporter gene assay. On the technique in general: A reporter such as luciferase makes a cellular process visible.
Data set [9] deals with T5, Prostaglandin E2 receptor EP3 subtype (Homo sapiens, UniProt P43115).
T5 sequence (P43115 whole entry): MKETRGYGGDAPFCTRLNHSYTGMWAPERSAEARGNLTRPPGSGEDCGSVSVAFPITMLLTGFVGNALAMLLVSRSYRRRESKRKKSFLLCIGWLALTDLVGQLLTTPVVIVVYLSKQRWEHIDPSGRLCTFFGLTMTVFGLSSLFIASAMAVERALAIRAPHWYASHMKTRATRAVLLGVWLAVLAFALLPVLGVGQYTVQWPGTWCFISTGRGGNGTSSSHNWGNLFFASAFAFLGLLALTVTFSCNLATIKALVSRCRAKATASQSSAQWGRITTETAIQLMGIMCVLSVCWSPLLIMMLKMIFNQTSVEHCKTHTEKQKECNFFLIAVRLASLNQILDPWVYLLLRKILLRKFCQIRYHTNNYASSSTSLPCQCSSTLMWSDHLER
In words: Binding affinity to human EP3 receptor.

Data set [10] in a line: Intrinsic clearance in rat […] by LC/MS/MS analysis. The class given is ADME, cell-free.
Another data set addresses Cytochrome P450 2C9 (Homo sapiens, UniProt P11712). In words: Inhibition of CYP2C9 (unknown origin). The class given is ADME.
The next data set deals with Cytochrome P450 2C19 (Homo sapiens, UniProt P33261). In words: Inhibition of CYP2C19 (unknown origin). It counts as ADME.
Data set [11] in a line: Oral bioavailability in Sprague-Dawley rat at 10 mg/kg. It counts as ADME, organism-based. The conditions noted are these: in vivo.
The nature of data set [12]: Intrinsic clearance in human […] by LC/MS/MS analysis. It counts as ADME, cell-free.
The species named for data set [13] is Homo sapiens. In words: Selectivity ratio of IC50 for EP2 receptor (unknown origin) to IC50 for human EP1 receptor.
For data set [14], the species on record is Homo sapiens. Description: Selectivity ratio of IC50 for EP4 receptor (unknown origin) to IC50 for human EP1 receptor.
For data set [15], the species on record is Homo sapiens. In words: Selectivity ratio of IC50 for EP3 receptor (unknown origin) to IC50 for human EP1 receptor.
Data set [16] deals with T3, Prostaglandin E2 receptor EP2 subtype. In words: Antagonist activity at EP2 receptor (unknown origin).
Data set [17] has as its target T4, Prostaglandin E2 receptor EP4 subtype. Description: Antagonist activity at EP4 receptor (unknown origin).
In data set [18] the target is T5, Prostaglandin E2 receptor EP3 subtype. Description: Antagonist activity at EP3 receptor (unknown origin).
Data set [19] has as its target T6, Prostaglandin E2 receptor EP1 subtype (Homo sapiens) (UniProt P34995).
T6 sequence (whole entry): T2 sequence (P34995 whole entry)
Description: Antagonist activity at human EP1 receptor at 1.1 uM by reporter gene assay.

Where only a bound is given, the exact number is not on record here.

As a reminder, the IC50 is the point on the concentration scale where inhibition reaches its midpoint. High values mean weaker potency in that assay, low ones greater potency in that assay. For orientation: Ki means a dissociation constant, usually derived from enzyme kinetics or from competition with a known ligand. Higher therefore signals a looser hold on the target. The term Papp A→B denotes the apparent permeability from the apical to the basolateral side of a cell layer. As usually defined, the CLint scaled is the capacity of the preparation to metabolise the compound, expressed as a volume cleared per time. The term bioavailability denotes dose-corrected exposure relative to a reference, in per cent. A high value points to good availability. One may read the inhibition as the percentage by which the read-out fell short of the control. Lower therefore signals a response near the control.

Sequence of Cytochrome P450 2C9 (P11712 whole entry): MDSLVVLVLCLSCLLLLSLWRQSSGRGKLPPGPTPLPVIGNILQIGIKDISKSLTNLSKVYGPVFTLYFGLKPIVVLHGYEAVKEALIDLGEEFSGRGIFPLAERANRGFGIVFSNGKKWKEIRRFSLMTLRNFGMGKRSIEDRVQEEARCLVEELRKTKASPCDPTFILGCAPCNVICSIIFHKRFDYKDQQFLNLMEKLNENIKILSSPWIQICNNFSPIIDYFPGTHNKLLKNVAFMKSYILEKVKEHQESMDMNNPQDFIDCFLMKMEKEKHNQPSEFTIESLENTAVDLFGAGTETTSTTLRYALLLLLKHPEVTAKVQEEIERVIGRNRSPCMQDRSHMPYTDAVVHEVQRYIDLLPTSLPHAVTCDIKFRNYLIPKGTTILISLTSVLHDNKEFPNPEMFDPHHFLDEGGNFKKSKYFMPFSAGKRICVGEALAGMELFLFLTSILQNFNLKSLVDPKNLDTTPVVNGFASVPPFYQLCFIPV
Sequence of Cytochrome P450 3A4 (P08684 whole entry): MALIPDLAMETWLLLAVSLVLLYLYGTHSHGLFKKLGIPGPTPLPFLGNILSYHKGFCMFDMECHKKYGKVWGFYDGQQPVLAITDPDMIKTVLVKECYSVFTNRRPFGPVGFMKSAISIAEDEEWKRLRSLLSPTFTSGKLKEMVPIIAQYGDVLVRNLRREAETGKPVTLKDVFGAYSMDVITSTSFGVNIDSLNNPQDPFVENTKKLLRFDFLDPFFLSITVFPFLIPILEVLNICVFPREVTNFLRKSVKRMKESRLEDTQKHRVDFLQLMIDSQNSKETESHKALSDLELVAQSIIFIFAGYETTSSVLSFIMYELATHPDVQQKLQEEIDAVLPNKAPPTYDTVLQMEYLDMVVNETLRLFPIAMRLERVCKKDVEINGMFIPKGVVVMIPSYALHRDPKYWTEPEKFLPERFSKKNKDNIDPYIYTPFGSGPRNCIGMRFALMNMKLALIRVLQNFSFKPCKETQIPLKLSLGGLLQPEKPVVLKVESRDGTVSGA
Sequence of Cytochrome P450 2D6 (P10635 whole entry): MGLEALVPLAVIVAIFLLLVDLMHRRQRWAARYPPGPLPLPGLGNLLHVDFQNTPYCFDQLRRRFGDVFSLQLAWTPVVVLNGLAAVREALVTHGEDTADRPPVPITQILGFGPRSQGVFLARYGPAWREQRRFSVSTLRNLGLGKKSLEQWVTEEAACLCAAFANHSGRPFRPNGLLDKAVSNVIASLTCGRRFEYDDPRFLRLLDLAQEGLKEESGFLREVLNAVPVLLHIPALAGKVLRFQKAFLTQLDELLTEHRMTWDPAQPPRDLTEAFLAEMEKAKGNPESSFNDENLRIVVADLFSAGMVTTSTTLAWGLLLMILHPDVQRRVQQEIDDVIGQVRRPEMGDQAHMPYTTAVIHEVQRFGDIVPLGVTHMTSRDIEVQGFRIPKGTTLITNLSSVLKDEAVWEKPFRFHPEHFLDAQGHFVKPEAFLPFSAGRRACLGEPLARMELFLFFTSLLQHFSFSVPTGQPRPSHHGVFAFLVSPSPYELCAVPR
T3 sequence (P43116 whole entry): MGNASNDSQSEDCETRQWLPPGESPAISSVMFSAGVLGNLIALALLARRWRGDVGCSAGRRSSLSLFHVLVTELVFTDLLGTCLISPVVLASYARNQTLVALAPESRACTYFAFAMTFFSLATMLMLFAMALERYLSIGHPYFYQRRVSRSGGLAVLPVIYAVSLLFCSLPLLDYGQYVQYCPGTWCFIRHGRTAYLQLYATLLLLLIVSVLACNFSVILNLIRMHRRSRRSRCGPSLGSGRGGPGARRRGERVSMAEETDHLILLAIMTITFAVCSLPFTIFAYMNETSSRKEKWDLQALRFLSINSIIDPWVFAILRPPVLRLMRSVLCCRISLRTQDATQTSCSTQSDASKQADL
T4 sequence (P35408 whole entry): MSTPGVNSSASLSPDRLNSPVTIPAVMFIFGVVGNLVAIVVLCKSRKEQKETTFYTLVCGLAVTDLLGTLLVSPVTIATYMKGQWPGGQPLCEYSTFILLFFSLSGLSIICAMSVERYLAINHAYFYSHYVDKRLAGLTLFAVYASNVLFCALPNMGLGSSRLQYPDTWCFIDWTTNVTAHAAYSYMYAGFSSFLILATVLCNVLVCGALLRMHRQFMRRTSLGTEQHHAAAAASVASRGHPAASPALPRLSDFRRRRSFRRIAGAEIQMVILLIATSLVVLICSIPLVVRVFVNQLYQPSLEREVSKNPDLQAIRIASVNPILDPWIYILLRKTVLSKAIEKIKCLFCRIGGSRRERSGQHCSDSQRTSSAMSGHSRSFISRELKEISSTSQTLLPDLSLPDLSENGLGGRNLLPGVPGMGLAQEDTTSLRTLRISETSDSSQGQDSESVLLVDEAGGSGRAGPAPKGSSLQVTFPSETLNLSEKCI
Sequence of Cytochrome P450 2C19 (P33261 whole entry): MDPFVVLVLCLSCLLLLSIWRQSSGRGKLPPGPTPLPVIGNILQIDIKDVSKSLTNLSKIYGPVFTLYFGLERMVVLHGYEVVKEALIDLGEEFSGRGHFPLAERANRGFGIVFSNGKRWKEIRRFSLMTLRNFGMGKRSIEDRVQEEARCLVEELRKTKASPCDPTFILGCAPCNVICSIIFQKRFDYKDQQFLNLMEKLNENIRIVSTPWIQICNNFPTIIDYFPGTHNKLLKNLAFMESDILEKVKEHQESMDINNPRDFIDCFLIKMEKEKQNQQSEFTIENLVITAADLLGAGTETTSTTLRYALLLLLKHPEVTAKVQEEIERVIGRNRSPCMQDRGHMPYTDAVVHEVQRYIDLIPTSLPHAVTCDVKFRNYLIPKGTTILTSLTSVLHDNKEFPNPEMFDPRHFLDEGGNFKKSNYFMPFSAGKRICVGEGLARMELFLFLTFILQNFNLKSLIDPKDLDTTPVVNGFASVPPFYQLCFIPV

`Cc1c(-c2ccccc2)nn(-c2nc(C(=O)O)cs2)c1-c1ccccc1`: the IC50 was 7.93 µM at Cytochrome P450 1A2; 0.5 µM in data set [1]; more than 10 µM at Cytochrome P450 3A4; more than 10 µM against Cytochrome P450 2D6; 0.05 µM in data set [8]; more than 10 µM on Cytochrome P450 2C9. On Cytochrome P450 2C19, this compound returned a half-inhibitory concentration (IC50) of 4.71 µM. Also, the Ki in [2] is more than 8 µM; in data set [5], 0.29 µM; in data set [6], more than 2.7 µM; in data set [9] it was more than 5 µM. In addition, the Activity entry in the data set on Salmonella typhimurium [3] and in the data set on Salmonella typhimurium [7] was “Non-toxic” throughout. Further, in data set [4], the Papp A→B turned out to be 51.6 ×10⁻⁶ cm/s. For the same compound, the intrinsic metabolic clearance (CLint scaled) in [10] was 15 mL/min/kg; in data set [12], 35 mL/min/kg. In data set [11], this compound gave a bioavailability of 32%.
For the compound `COc1ccc(-c2cc(C(F)(F)F)nn2-c2nc(C(=O)O)cs2)cc1`, the IC50 was more than 10 µM against Cytochrome P450 1A2; 5.8 µM in data set [1]; more than 10 µM on Cytochrome P450 3A4; more than 8 µM in data set [16]; more than 10 µM against Cytochrome P450 2D6; 1 µM in data set [8]. For the same compound, the half-inhibitory concentration (IC50) in data set [17] was more than 2.7 µM; in data set [18], more than 5 µM; at Cytochrome P450 2C9, more than 10 µM; against Cytochrome P450 2C19 it was 7.14 µM. In addition, the Ki was more than 8 µM in data set [2], 8.7 µM in [5], more than 2.7 µM in data set [6] and more than 5 µM in data set [9]. Besides, the Activity result with Salmonella typhimurium [3] and in the data set on Salmonella typhimurium [7] was “Non-toxic” in each case. The Ratio IC50 in the data set filed under Homo sapiens [13], in the data set filed under Homo sapiens [14] and in the data set listed under Homo sapiens [15] was 3 throughout. Further, the values for the CLint scaled in data set [10] and in [12] were 195 mL/min/kg and 187 mL/min/kg, respectively.
On to `Cc1ccc(-c2cc(C(F)(F)F)n(-c3nc(C(=O)O)cs3)n2)cc1`, for which the 50% inhibitory concentration (IC50) in data set [8] turned out to be 3 µM.
Same read-out and setting: the result for `Cn1c(-c2ccccc2)nc(-c2nc(C(=O)O)cs2)c1-c1ccccc1` reads 0.5 µM.
Regarding `O=C(O)c1csc(-n2nc(-c3ccccc3)cc2-c2ccccc2)n1`, in [19], the inhibition is 31%.
With `O=C(O)c1csc(-n2nc(-c3ccccc3O)cc2C(F)(F)F)n1`, the IC50 against Cytochrome P450 1A2 was more than 10 µM; in data set [1] it was 0.8 µM; against Cytochrome P450 3A4, more than 10 µM; at Cytochrome P450 2D6, more than 10 µM; in [8] it was 0.18 µM; at Cytochrome P450 2C9, more than 10 µM. In addition, the IC50 against Cytochrome P450 2C19 was more than 10 µM. Besides, the inhibition constant Ki in data set [2] is more than 8 µM; in data set [5], 0.53 µM; in [6] it was more than 2.7 µM; in data set [9], more than 5 µM. In addition, the Activity entry in the data set with Salmonella typhimurium [3] and with Salmonella typhimurium [7] was “Non-toxic” in each case. For the same compound, the apparent permeability from apical to basolateral (Papp A→B) in data set [4] came to 22.8 ×10⁻⁶ cm/s. For the same compound, the CLint scaled stood at 130 mL/min/kg in data set [10] and 500 mL/min/kg in data set [12].
`CC(C)(C)c1cc(-c2ccccc2)nn1-c1nc(C(=O)O)cs1`: the inhibition in [19] worked out at 1%.
`O=C(O)c1csc(-n2nc(-c3cccc(O)c3)cc2C(F)(F)F)n1`: inhibition in data set [8] was half-maximal at 0.58 µM (IC50).
For `Cc1c(-c2ccccc2)nc(-c2nc(C(=O)O)cs2)n1-c1ccccc1`, in [19], the inhibition came out at 7%.
In data set [8], `COc1ccc(-c2cc(C(F)(F)F)n(-c3nc(C(=O)O)cs3)n2)cc1` showed an IC50 of 0.43 µM.
In [19], `Cc1cc(-c2ccccc2)nn1-c1nc(C(=O)O)cs1` registered an inhibition of 14%.
Regarding `Cc1c(-c2ccccc2)nn(-c2nc(C(=O)O)cs2)c1C(F)(F)F`, in data set [8], the IC50 was found to be 0.084 µM.
On the same count and under the same terms, the result for `O=C(O)c1csc(-n2nc(-c3ccc(O)cc3)cc2C(F)(F)F)n1` reads 0.32 µM.
In the case of `O=C(O)c1csc(-n2nc(-c3ccccc3)cc2C(F)(F)F)n1`, the 50% inhibitory concentration (IC50) is more than 10 µM against Cytochrome P450 1A2; more than 10 µM at Cytochrome P450 3A4; more than 10 µM against Cytochrome P450 2D6; 0.32 µM in [8]; more than 10 µM on Cytochrome P450 2C9; more than 10 µM on Cytochrome P450 2C19. This compound also yielded a CLint scaled in data set [12] of 28 mL/min/kg.
